Results as given in article PMC11589570, “Critical assessment of LC3/GABARAP ligands used for degrader development and ligandability of LC3/GABARAP binding pockets” (Nature Communications, 2024).
Read-outs that look alike come from different tables or passages of the source.

How the values were obtained:
GABARAPL2 = GABARAPL2 (Homo sapiens, UniProt P60520); settings: GABARAPL2:ligand molar ratio 1:2
[1] = tested on: RPE-1 GFP-LC3B-RPF-LC3∆G reporter cell line; test: Autophagy flux assay; format: cell-based; settings: rebuttal letter
Text: LC3/GABARAP in vitro, but no attempts are made to replicate the previously reported cellular activity of these compounds. It would be beneficial to know whether these compounds have any effect on autophagy in the authors’ hands, and therefore could act by alternative mechanisms, or whether they […]
Response: We were very concerned that the ligands used for ATTEC development might induce general toxicity in cell lines, as they are based on drugs used in oncology (such as the kinesin inhibitor 10O5) and the isoxazole scaffold often used in the development of multi-targeted kinase inhibitors. However, we have now investigated compounds 1-4 in autophagy flux assays using the RPE-1 GFP-LC3B-RPF-LC3∆G reporter cell line (single clone) as […]
reported in [PMID:37558952].
(RR_Figure 6). The authors of the first manuscript reporting these ligands [PMID: 31666698]
However, due to the potent activity of 8F20 on KIF11, which will have profound effects on cell trafficking and growth, and DCAF11 (AN1, [PMID: 38036533]), we find it unlikely that the effects on autophagy are due to LC3/GABARAP modulation. Due to the lack of target (LC3/GABARAP) binding in vitro and the […]
of this review but have excluded the data in the manuscript.
RR_figure 5: Autophagy flux measurement for 10O5 and AN2. No induction of autophagy or effects (right panels, assessed by Incucyte (Sartorius) life cell imaging) on cell growth was […]
RR_figure 6: Autophagy flux measurement for 8F20 and AN1 show changes in autophagy flux […]
It is not clear how many biological replicates have been performed. For example, the figure legends […]

Sequence of GABARAPL2 (P60520 whole entry): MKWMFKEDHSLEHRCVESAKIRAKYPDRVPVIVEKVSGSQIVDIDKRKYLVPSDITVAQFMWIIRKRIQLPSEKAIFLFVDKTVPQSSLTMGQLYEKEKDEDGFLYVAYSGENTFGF

Cc1ccc(C(=O)N(CCCN)[C@@H](c2nc3cc(Cl)ccc3c(=O)n2Cc2ccccc2)C(C)C)cc1 [compound 3, (R)-N-(3-aminopropyl)-N-(1-(3-benzyl-7-chloro-4-oxo-3,4-dihydroquinazolin-2-yl)−2-methylpropyl)−4-methylbenzamide]
CSP (GABARAPL2; residue A19): 0.00171 ppm
CSP (GABARAPL2; residue A23): 0.00424 ppm
CSP (GABARAPL2; residue A58): 0.00148 ppm
CSP (GABARAPL2; residue A75): 0.002 ppm
CSP (GABARAPL2; residue A108): 0.000762 ppm
CSP (GABARAPL2; residue C15): 0.004 ppm
CSP (GABARAPL2; residue D8): 0.00263 ppm
CSP (GABARAPL2; residue D27): 0.00158 ppm
CSP (GABARAPL2; residue D43): 0.00251 ppm
CSP (GABARAPL2; residue D45): 0.003 ppm
CSP (GABARAPL2; residue D54): 0.000849 ppm
CSP (GABARAPL2; residue D81): 0.00228 ppm
CSP (GABARAPL2; residue D100): 0.00228 ppm
CSP (GABARAPL2; residue D102): 0.00165 ppm
CSP (GABARAPL2; residue E7): 0.00472 ppm
CSP (GABARAPL2; residue E12): 0.00142 ppm
CSP (GABARAPL2; residue E17): 0.000762 ppm
CSP (GABARAPL2; residue E34): 0.009 ppm
CSP (GABARAPL2; residue E73): 0.000762 ppm
CSP (GABARAPL2; residue E96): 0.000707 ppm
CSP (GABARAPL2; residue E98): 0.00122 ppm
CSP (GABARAPL2; residue E101): 0.002 ppm
CSP (GABARAPL2; residue E112): 0.0017 ppm
CSP (GABARAPL2; residue F60): 0.005 ppm
CSP (GABARAPL2; residue F77): 0.000283 ppm
CSP (GABARAPL2; residue F79): 0.002 ppm
CSP (GABARAPL2; residue F104): 0.0075 ppm
CSP (GABARAPL2; residue F115): 0.005 ppm
CSP (GABARAPL2; residue G38): 0.005 ppm
CSP (GABARAPL2; residue G103): 0.00213 ppm
CSP (GABARAPL2; residue G111): 0.00847 ppm
CSP (GABARAPL2; residue G116): 0.0024 ppm
CSP (GABARAPL2; residue H9): 0.010 ppm
CSP (GABARAPL2; residue H13): 0.0011 ppm
CSP (GABARAPL2; residue I21): 0.00184 ppm
CSP (GABARAPL2; residue I32): 0.00354 ppm
CSP (GABARAPL2; residue I41): 0.011 ppm
CSP (GABARAPL2; residue I44): 0.00216 ppm
CSP (GABARAPL2; residue I55): 0.000762 ppm
CSP (GABARAPL2; residue I63): 0.004 ppm
CSP (GABARAPL2; residue I64): 0.00283 ppm
CSP (GABARAPL2; residue I68): 0.008 ppm
CSP (GABARAPL2; residue I76): 0.000707 ppm
CSP (GABARAPL2; residue K2): 0.008 ppm
CSP (GABARAPL2; residue K6): 0.007 ppm
CSP (GABARAPL2; residue K20): 0.000707 ppm
CSP (GABARAPL2; residue K24): 0.001 ppm
CSP (GABARAPL2; residue K35): 0.004 ppm
CSP (GABARAPL2; residue K46, estimated): 0.010 ppm
CSP (GABARAPL2; residue K48): 0.022 ppm
CSP (GABARAPL2; residue K66): 0.00142 ppm
CSP (GABARAPL2; residue K74): 0.000906 ppm
CSP (GABARAPL2; residue K97): 0.00113 ppm
CSP (GABARAPL2; residue K99): 0.00144 ppm
CSP (GABARAPL2; residue L11): 0.000762 ppm
CSP (GABARAPL2; residue L50): 0.00216 ppm
CSP (GABARAPL2; residue L70): 0.0019 ppm
CSP (GABARAPL2; residue L78): 0.00212 ppm
CSP (GABARAPL2; residue L105): 0.00283 ppm
CSP (GABARAPL2; residue M1): 0.006 ppm
CSP (GABARAPL2; residue M61): 0.00221 ppm
CSP (GABARAPL2; residue N113): 0.000141 ppm
CSP (GABARAPL2; residue P26, estimated): 0.002 ppm
CSP (GABARAPL2; residue P30, estimated): 0.002 ppm
CSP (GABARAPL2; residue P52, estimated): 0.002 ppm
CSP (GABARAPL2; residue P71, estimated): 0.002 ppm
CSP (GABARAPL2; residue Q40): 0.00659 ppm
CSP (GABARAPL2; residue Q59): 0.000424 ppm
CSP (GABARAPL2; residue Q69): 0.0011 ppm
CSP (GABARAPL2; residue R14): 0.003 ppm
CSP (GABARAPL2; residue R22): 0.00649 ppm
CSP (GABARAPL2; residue R28): 0.00232 ppm
CSP (GABARAPL2; residue R47, estimated): 0.015 ppm
CSP (GABARAPL2; residue R65): 0.0022 ppm
CSP (GABARAPL2; residue R67): 0.003 ppm
CSP (GABARAPL2; residue S10): 0.008 ppm
CSP (GABARAPL2; residue S18): 0.00146 ppm
CSP (GABARAPL2; residue S37): 0.005 ppm
CSP (GABARAPL2; residue S39): 0.00232 ppm
CSP (GABARAPL2; residue S53): 0.002 ppm
CSP (GABARAPL2; residue S72): 0.00122 ppm
CSP (GABARAPL2; residue S110): 0.000825 ppm
CSP (GABARAPL2; residue T56): 0.00133 ppm
CSP (GABARAPL2; residue T114): 0.0017 ppm
CSP (GABARAPL2; residue V16): 0.000141 ppm
CSP (GABARAPL2; residue V29): 0.00214 ppm
CSP (GABARAPL2; residue V31): 0.00444 ppm
CSP (GABARAPL2; residue V33): 0.00281 ppm
CSP (GABARAPL2; residue V36): 0.00638 ppm
CSP (GABARAPL2; residue V42): 0.00652 ppm
CSP (GABARAPL2; residue V51): 0.00319 ppm
CSP (GABARAPL2; residue V57): 0.00127 ppm
CSP (GABARAPL2; residue V80): 0.00281 ppm
CSP (GABARAPL2; residue V107): 0.005 ppm
CSP (GABARAPL2; residue W3): 0.007 ppm
CSP (GABARAPL2; residue W62): 0.0057 ppm
CSP (GABARAPL2; residue Y25): 0.00742 ppm
CSP (GABARAPL2; residue Y49): 0.010 ppm
CSP (GABARAPL2; residue Y106): 0.00214 ppm
CSP (GABARAPL2; residue Y109): 0.00263 ppm
autophagy induction (autophagy flux) [1]: significant autophagy activation
effects on cell growth (Incucyte life cell imaging) [1]: profound effects on cell growth
